# Entries after “also recorded” stand apart in the source; their conditions may differ.
# What was measured:
# Assay type in all cases: cell-based, human
# [1] = test system: neutrophils; assay: Apoptosis/necrosis inhibitors as preservatives of isolated neutrophils
# Experimental: Evaluation of apoptosis and necrosis inhibitors as neutrophil preservatives. Neutrophils were isolated by negative selection from healthy donor whole blood using the recommended protocol and reagents from the Human Neutrophil Enrichment Kit (StemCell Technologies; Vancouver, British Columbia, Canada). Yield was determined by counting particles from 8-30 μm in diameter using a Coulter Counter Z1 (Beckman Coulter; Brea, Calif.). Neutrophils were stored in IMDM+20% FBS and were either untreated (control) or treated with 1.25 μL/mL DMSO (Sigma-Aldrich; St. Louis, Mo.), 5 μM Q-VD-OPh (Apex Bio; Houston, Tex.), 50 μM Necrostatin-1 (Cayman Chemical; Ann Arbor, Mich.), or 50 μM Boc-D-FMK Apex Bio; Houston, Tex.). Matched samples were processed immediately after isolation and after 24, 48, 72, and 96 hours of storage at 21° C. Samples were stained with R-phycoerythrin-conjugated Annexin V, SYTOX Green, Hoechst 33342 (all Life Technologies; Carlsbad, Calif.), and allophycocyanin-conjugated CD45 (Huntington Valley) and imaged using an ImageStream^X Mk. II Imaging Flow Cytometer (Amnis Corporation; Seattle, Wash.).
# [2] = test system: neutrophils; assay: Neutrophil migration toward fMLP gradient (microfluidic device)
# Experimental: To determine whether neutrophils stored under these conditions were still capable of migrating toward an fMLP gradient, we utilized a microfluidic device previously developed for this purpose. Briefly, fMLP, a neutrophil chemoattractant, is added to two outer chambers. The outer chambers are connected to an inner chamber through a series of channels, creating a gradient. The inner chamber was then filled with neutrophils. Freshly isolated neutrophils were immediately evaluated to establish a time 0 migratory response, then the preserved neutrophils were examined after 72 and 96 h ambient storage for comparison.
# [3] = test system: platelets; assay: Platelet activation surface markers by imaging flow cytometry; details: dosages 0.01-0.5 ug/mL, 20 min at 4 or 22° C.
# Experimental: Platelet inhibitors used include: Tirofiban (Sigma), Eptifibatide (Tocris), Clopidogrel (Sigma), KF38789 (Tocris). In all experimental conditions that involved treatment with platelet inhibitors (e.g., tirofiban, eptifibatide, etc.), these compounds were added to blood samples and mixed by gentle rocking for 10 minutes before the sample was processed for other assays or storage. The addition of EDTA, unless otherwise stated, occurred 15 minutes prior to the assay (i.e., EDTA was not present during sample storage).
# Platelet activation and cell viability were determined using the Image Stream Mark II imaging flow cytometer (Amnis Corporation) equipped with a 40× objective and the 405, 488, 642 nm lasers. For the platelet activation panel, 1 μl of whole blood was combined with PBS and fluorescently labeled antibodies as follows; Pacific Blue conjugated CD41 (1:150; clone HIP8; BioLegend), FITC conjugated PAC-1 (1:10; clone PAC-1 (RUO (GMP)); BD Pharmingen), PE conjugated CD62P (1:100; clone AK-4; BD Pharmingen), APC conjugated CD63 (1:10; clone H5C6; Biolegend), PE/Cy7 conjugated CD45 (1:100; clone HI30; Abcam). […]
# [4] = test system: neutrophil elastase; assay: Quantification of neutrophil elastase (NETosis); details: fresh whole blood stimulated, positive control for NETs, n=7
# Experimental: Blood samples were mixed gently, warmed to 37° C. for four hours for the release of NETs contents into the plasma, and diluted with PBS to a final blood volume fraction of 25% before centrifugation at 2000×g for 5 minutes. The supernatant was then carefully transferred to a new centrifuge tube and stored at −80° C. for further processing. The level of neutrophil elastase was quantified using the Neutrophil Elastase Activity Assay Kit (Cayman Chemical Company) according to manufacturer's protocol, using a SpectraMax M5 spectrometer (Molecular Devices). As a positive control for NETosis, phorbol myristate acetate (100 nM) was added to fresh whole blood prior to incubation.
structure (smiles),measurement,setting,value
"CC(C)[C@H](NC(=O)c1ccc2ccccc2n1)C(=O)N[C@@H](CC(=O)O)C(=O)COc1c(F)cccc1F [Q-VD-OPh, (3S)-5-(2,6-difluorophenoxy)-3-[[(2S)-3-methyl-2-(quinoline-2-carbonylamino)butanoyl]amino]-4-oxopentanoic acid]",CD45 biomarker expression of neutrophils,"[1]; 5 μM, 96 h ambient storage",effectively preserved CD45 biomarker expression
same,apoptosis inhibition in neutrophils,"[1]; 5 μM, IMDM+20% FBS, ambient storage up to 96 h",highly effective at apoptosis inhibition
same,stability of treated neutrophils under ambient storage,[1]; ambient storage conditions,72 to 96 h
same,migratory response to fMLP,"[2]; after 72 h ambient storage, vs freshly isolated neutrophils",comparable to that of the freshly isolated neutrophils; also recorded: nearly indistinguishable from the migratory response of the freshly isolated neutrophils
same,migratory speed toward fMLP gradient,"[2]; after ambient storage, vs fresh neutrophils",identical to the fresh neutrophils; also recorded: maintained comparable speed to freshly isolated neutrophils
CCCCS(=O)(=O)N[C@@H](Cc1ccc(OCCCCC2CCNCC2)cc1)C(=O)O [Tirofiban],"platelet activation (PAC-1, CD62/p-selectin) of cold treated platelets",[3],minimally activated
CCCCCCCCCCCCCC(=O)O[C@@H]1[C@@H](C)[C@@]2(O)[C@@H](C=C(CO)C[C@]3(O)C(=O)C(C)=C[C@@H]23)[C@@H]2C(C)(C)[C@]12OC(C)=O [phorbol myristate acetate],neutrophil elastase level,[4],81.4±64.4 mU/mL

# From patent US11612163B2, “Stabilization of whole blood samples” (The General Hospital Corporation, priority 2014, dated 2023)
